Data reported in patent US12702676B2, “Fosfomycin dosing regimens” (priority 2017, dated 2026).
Values after ≈ are worked out from the molar mass of the structure shown. Where two headings read alike, the source gives them in different places.

Tests used:
[1] = test system: acute pyelonephritis pathogens; conditions: Ode et al. study; dosing regimen 8 g bid; cited from earlier work
[2] = test system: Acinetobacter baumannii-calcoaceticus complex; assay: Case treated with the dosing regimen of the invention; format: in vivo; conditions: one case
Source text: In addition to the above list, it was also observed that the dosing regimen of the present invention provided beneficial results for two uncommon and rarely treated strains. In one case, the dosing regimen of the present invention was used to administer appropriate dosages of fosfomycin, resulting in the eradication of the often resistant, Gram negative Acinetobacter baumannii-calcoaceticus complex.

[3] = Population PK analysis of ZTI-01, pooled Phase 1 healthy subjects and Phase 2/3 cUTI/AP patients; format: in vivo, human; conditions: for Baseline CLcr50 / Hill coefficient: CL model
Source text: Methods: Two clinical studies have been conducted as part of the development of ZTI-01: a Phase 1 study in healthy subjects (ZTI-01-NIH13-0064) and a Phase 2/3 study in hospitalized patients with complicated urinary tract infections (ZTI-01-200). A PPK model, originally developed using Phase 1 data and an empirical relationship between FOS clearance (CLt) and creatinine clearance (CLcr) [Microbe 2017 Abstr. P1134], was refined using pooled data from healthy subjects and patients with cUTI, including acute pyelonephritis.
The PPK model was developed in NONMEM 7.2. In the Phase 1 study, 28 healthy subjects who received ZTI-01 as single (1 and 8 g infused over 1 hour) IV doses in crossover fashion provided plasma and urine samples for FOS concentration determination over 24 hours. Patients from the Phase 2/3 study (ZEUS, NCT02753946) received ZTI-01 at 6 g every 8 hours, with dosage adjustment for patients with renal impairment (adjusted for CLcr≤50 mL/min). Blood samples for PK (n=5 per patient) were collected on Day 1 and on either Days 3, 4, or 5. Model development involved refinement of the previous CLt:CLcr relationship using the pooled data and a full covariate analysis to identify other patient descriptors associated with the interindividual variability (IIV) in FOS PK. Model qualification included standard goodness-of-fit metrics and visual predictive check plots.
For the PPK model refinement, previous structural population PK model was fit to the pooled Phase 1 and 2/3 data. Covariate analyses were conducted using forward selection and backward elimination. The final model was qualified using visual predictive checks and non-parametric bootstrap procedures. Individual, post-hoc fosfomycin exposures were calculated for each patient using predicted plasma fosfomycin concentration-time data for the first 48 hours of therapy.

[4] = test system: Raoultella ornithinolytica; assay: Case treated with the dosing scheme of the invention; format: in vivo; conditions: one case
[5] = Pharmacokinetics in specific populations (hemodialysis, hepatic, demographics); format: in vivo, human
[6] = test system: Enterobacteriaceae; conditions: cited from earlier work; for Total-drug AUC:MIC ratio target: Enterobacteriaceae; for Median total-drug AUC:MIC ratio target: neutropenic murine-thigh infection model (Lepak et al.)
[7] = test system: Enterobacteriaceae; assay: Non-clinical total-drug % T>RIC targets for efficacy
Source text: Emphasis was placed on the assessment of PK-PD target attainment results for AUC:MIC ratio and % T>RIC targets associated with net bacterial stasis.

[8] = test system: Enterobacteriaceae isolates; conditions: 1,021 Enterobacteriaceae isolates collected from US medical centers; cited from earlier work
[9] = final population PK model estimate
[10] = 1-log10 CFU reduction from baseline

## C[C@@H]1O[C@@H]1P(=O)(O)O [fosfomycin]
[1]
  effective (patients with AP): 44%
[2]
  outcome against Acinetobacter baumannii-calcoaceticus complex: eradication
[3]; bootstrap mean (N = 200)
  Baseline CLcr50: 66.3 mL/min/1.73 m^2
  Hill coefficient: 2.6
  CLd1 Coefficient: 4.36 L/h
  CLd1 Proportional increase for AP and cUTI patients: 1.28
  CLd2 Coefficient: 0.351 L/h
  CLe maximum: 9.02 L/h
  Covariance between CL and Vc: 0.0707
  Covariance between CL and Vp1: 0.134
  Covariance between CLd1 and Vp1: 0.173
  Plasma Residual variability (σ^2) CCV component: 0.0196
  Urine Residual variability (σ^2) CCV component: 0.0793
  Vc Coefficient: 17.7 L
  Vc-BSA power: 1.72
  Vp1-BSA power: 2.73
  Vp1 Coefficient: 6.11 L
  Vp1 Proportional increase for AP and cUTI patients: 0.721
  Vp2 Coefficient: 1.74 L
  ω^2 for Vc: 0.174
  ω^2 for Vp1: 0.516
  ω^2 tor CLd1: 0.203
[3]; bootstrap median (N = 200)
  Baseline CLcr50: 65.6 mL/min/1.73 m^2
  Hill coefficient: 2.59
  CLd1 Coefficient: 4.2 L/h
  CLd1 Proportional increase for AP and cUTI patients: 1.15
  CLd2 Coefficient: 0.346 L/h
  CLe maximum: 8.87 L/h
  Covariance between CL and Vc: 0.0704
  Covariance between CL and Vp1: 0.131
  Covariance between CLd1 and Vp1: 0.166
  Plasma Residual variability (σ^2) CCV component: 0.0194
  Urine Residual variability (σ^2) CCV component: 0.079
  Vc Coefficient: 17.7 L
  Vc-BSA power: 1.7
  Vp1-BSA power: 2.73
  Vp1 Coefficient: 6.03 L
  Vp1 Proportional increase for AP and cUTI patients: 0.706
  Vp2 Coefficient: 1.72 L
  ω^2 for Vc: 0.172
  ω^2 for Vp1: 0.508
  ω^2 tor CLd1: 0.199
[3]; [9]
  Baseline CLcr50: 65 mL/min/1.73 m^2
  Hill coefficient: 2.56
  CLd1 Coefficient: 4.15 L/h
  CLd1 Proportional increase for AP and cUTI patients: 1.24
  CLd2 Coefficient: 0.349 L/h
  CLe maximum: 8.87 L/h
  Covariance between CL and Vc: 0.07213
  Covariance between CL and Vp1: 0.1296
  Covariance between CLd1 and Vp1: 0.1853
  Plasma Residual variability (σ^2) CCV component: 0.0195
  Urine Residual variability (σ^2) CCV component: 0.0795
  Vc Coefficient: 17.6 L
  Vc-BSA power: 1.76
  Vp1-BSA power: 2.72
  Vp1 Coefficient: 5.99 L
  Vp1 Proportional increase for AP and cUTI patients: 0.729
  Vp2 Coefficient: 1.73 L
  ω^2 for Vc: 0.175
  ω^2 for Vp1: 0.502
  ω^2 tor CLd1: 0.215
[3]; geometric mean, infected Phase 2/3 patients (n = 214), ZTI-01-200, population PK model fit
  Cmin: 30.0 µg/mL
[3]; human, in vivo, 6 g, geometric mean, infected Phase 2/3 patients (n = 214), ZTI-01-200, population PK model fit
  Cmax: 364 µg/mL
[3]; human, in vivo, 6 g, geometric mean, infected Phase 2/3 patients (n = 214), ZTI-01-200, population PK model fit, read-out: CL (converted)
  clearance: 99.7 mL/min
[3]; human, in vivo, 6 g, geometric mean, infected Phase 2/3 patients (n = 214), ZTI-01-200, population PK model fit, read-out: VSS
  Vd: 30.9 L
[3]; human, in vivo, 6 g, geometric mean, infected Phase 2/3 patients (n = 214), ZTI-01-200, population PK model fit, read-out: t1/2, α (converted)
  half-life: 0.402 h
[3]; human, in vivo, 6 g, geometric mean, infected Phase 2/3 patients (n = 214), ZTI-01-200, population PK model fit, read-out: t1/2, β (converted)
  half-life: 2.67 h
[3]; human, in vivo, 6 g, geometric mean, infected Phase 2/3 patients (n = 214), ZTI-01-200, population PK model fit, read-out: t1/2, γ (converted)
  half-life: 4.99 h
[3]; human, in vivo, 6 g, geometric mean, infected Phase 2/3 patients (n = 214), ZTI-01-200, doses by baseline renal function, population PK model fit, read-out: AUC0-24
  AUC(0-t): 2490 µg·h/mL
[3]; human, in vivo, bootstrap mean (N = 200), read-out: Non-renal CL (converted)
  clearance: 27 mL/min
[3]; human, in vivo, bootstrap median (N = 200), read-out: Non-renal CL (converted)
  clearance: 27.2 mL/min
[3]; human, in vivo, final population PK model estimate, read-out: Non-renal CL (converted)
  clearance: 26.8 mL/min
[4]
  outcome against Raoultella ornithinolytica: successfully eradicated
[5]; administered prior to hemodialysis in patients on periodic or chronic hemodialysis
  fosfomycin dose removed by hemodialysis: 61-79%
[5]; age 18 to 89 years, adjusted for renal function
  differences in pharmacokinetics based on sex, body weight/body surface area, race/ethnicity or age: No clinically significant differences
[5]; in vivo
  metabolism through the liver: not metabolized through the liver
[6]; [10]
  Total-drug AUC:MIC ratio target: 41.6
[6]; 1 log10 CFU reduction from baseline
  Median total-drug AUC:MIC ratio target: 41.6
[6]; Net bacterial stasis
  Total-drug AUC:MIC ratio target: 19.1
  Median total-drug AUC:MIC ratio target: 19.1
[7]; [10]
  Total-drug % T > RIC target: 20.9%
[7]; 2-log10 CFU reduction from baseline
  Total-drug % T > RIC target: 32.8%
[7]; Net bacterial stasis
  Total-drug % T > RIC target: 11.9%
[8]
  MIC50: 4 µg/mL (≈ 29 µM)
  MIC90: 16 µg/mL (≈ 116 µM)
